From patent US5623080A, “Fluorone and pyronin Y derivatives” (Spectra Group Limited, Inc., priority 1995, dated 1997)

Experiments:
[1] = absorption wavelength (λmax) and extinction (ε); format: physicochemical; conditions: for λmax in EtOH (first value) / ε (first value) / λmax in EtOH / ε: Table 1, EtOH; for ε (first value): at first λmax, in M-1cm-1 (unit assumed); for ε: at second λmax; for absorption wavelength: comparison
[2] = double bond conversion (C=C% Conversion) by FTIR; conditions: (1:2:3), DIDMA, 30 sec
Method: (§1) To a resin formulation consisting of 15 parts urethane diacrylate, 15 parts DPHPA, 20 parts TPGDA and 40 parts TMPTA was added DIDMA, initiator and (4-octyloxyphenyl)phenyliodonium hexafluoroantimonate (OPPI). The samples were coated to a thickness of 15 microns and exposed to a 75 W tungsten halogen dental lamp (focused through an optical fiber) at a distance of 0.75 inch at which the Light intensity was about 0.40 W/cm^2. The molar ratios are indicative of the amounts of fluorone to onium salt to amine coinitiator. The double bond conversion was determined by FTIR spectroscopy. The pencil hardness of a given test sample is measured by holding a pencil at a 45° angle to the sample and drawing across it towards the person testing it. Using the pencils in an order from softest to hardest, the first pencil that scratches the surface is assigned as the pencil hardness of the sample. The pencil hardness scale is as follows from softest to hardest: 4B, 3B, 2B, B, HB, H, 2H, 3H, 4H, 6H. For instance, if a 2H pencil is the first pencil to scratch the surface then the pencil hardness is 2H.

depth of cure = assay: depth of cure
Excerpt: One of the advantages of the fluorone dye photoinitiators in this invention is the depth of the cure that is obtainable. This is in contrast to UV photoinitators that causes a "screening" effect which prevents the UV light from penetrating beyond a certain […] depth, usually several millimeters. By contrast, the fluorone dye bleaches as it photoinitiates and is concommitantly converted into a non-visible absorbing species thus allowing more visible light to penetrate which continues the cure. This cascading bleaching effect permits substantial depth of cure which can easily reach several inches.
An acrylate monomer mixture was composed of 15 parts urethane diacrylate, 20 parts TPGPA, 40 parts TMPTA and 15 parts DPHPA, and a 20 to 1 weight ratio of NPG coinitiator to DIEF or DIBF fluorone dye. For dye concentrations of 0.01, 0.05 and 0.1 weight, all the formulations cured to a depth of 3 cm in 30 seconds when exposed to a 350 watt tungsten halogen light which provides about 500 mw/cm^2 irradiance. When the irradiance was increased to about 2 watts/cm^2 cure speed was shortened to 5 seconds for the same depth.
An acrylate mixture was composed of 60% urethane diacrylate, 30% DPHPA, 10% BDDA, and 0.05 weight % of DIEF or DIBF fluorone dye with 2 weight % of DIDMA. The formulation cure to a depth greater than 1 cm in 10 seconds when exposed to a 75 watt tungsten halogen lamp which provided an irradiance of about 260 mw/cm^2.
An acrylate mixture was composed of 33% TMPTA, 33% DPHPA, 33% Epoxy acrylate, and 2% of DIDMA with either 0.01, 0.05 or 0.1 weight % of DIEF. All samples cured to a depth greater than 1 cm in 10 seconds when exposed to a 75 watt tungsten halogen.
An acrylate mixture was composed of 70% urethane diacrylate, 5% DPHPA, 25% BDDA, and 2% DIDMA with either 0.01, 0.03 or 0.1 weight % DIEF. The 0.01 and 0.03 samples cured after 2 passes through a 300 watt per inch medium pressure mercury arc lamp at a speed of 50 feet/minute to a depth greater than 3 mm. The 0.1 sample cured to a depth of greater than 1.5 mm.

pencil hardness = conditions: 0.05 wt. %
Method: as §1
At the extreme ends of the scale, it is impossible to determine the actual pencil hardness. […] Likewise, if the 4B pencil scratches the sample, the only assignment that can be made is <4B, unless it is a lot softer than 4B in which case a <<4B can be assigned. A pencil hardness of 4H is generally considered satisfactory. Pencil hardness data was greater than 6H after 30 seocnd exposure for all samples except for the control samples without amine (1:2:0). The controls were all less than 4B an 0.05 wt %, 0.10 wt %, and 0.15 wt %.
Photosensitive compositions were prepared from the resin formulation of Example 35 containing 1% NPG and 0.05% DIBF or 0.05% DIEF. The samples were exposed under the conditions shown in the following table and pencil hardness was measured.
Diphenyliodonium hexafluoroantimonate was added to DIBF samples.
Samples were also prepared using 1% DIDMA in addition to the fluorone for a 20:1 weight ratio.
Samples were also prepared from the same resin formulation containing 0.1% DIBF in addition to the coinitiator listed in the following Table 9 with the exposure condition and pencil hardness results shown.
Using the resin formulation of Example 36, photosensitive compositions were prepared using TIHF, DIDMA and OPPI at a concentration of 0.21% and in the molar ratios shown in Table 10 which follows. Exposure was conducted with the dental lamp at a distance of 1 inch from the sample to provide an intensity of about 0.26 W/cm^2. Molar ratios are fluorone:onium salt:amine.

CCCCCCCCOc1ccc2cc3cc(I)c(=O)c(I)c-3oc2c1 [DIOF, 5,7-diiodo-3-octoxy-6-fluorone]
λmax in EtOH (first value) [1]: 470 | ε (first value) [1]: 31,600 | C=C% Conversion ([2]; 0.05 wt %): 40% | C=C% Conversion ([2]; 0.15 wt %): 40%

N#Cc1c2cc(I)c(=O)c(I)c-2oc2c(I)c(O)c(I)cc12 [TIHCF, 9-cyano-3-hydroxy-2,4,5,7-tetraiodo-6-fluorone]
depth of cure results (depth of cure; other fluorone dyes): have also been observed | λmax in EtOH [1]: 586 | λmax in EtOH (first value) [1]: 638 | ε (first value) [1]: 80000 | ε [1]: 35000 M⁻¹ cm⁻¹ | absorption wavelength [1]: 636 nm | λmax ([1]; ethanol, synthesis example): 638 nm

CCOc1ccc2cc3cc(I)c(=O)c(I)c-3oc2c1 [DIEF, 5,7-diiodo-3-ethoxy-6-fluorone]
Pencil hardness (pencil hardness; 1% DIDMA, Dental Lamp, Air, 60 sec): 3B | Pencil hardness (pencil hardness; 1% DIDMA, Dental Lamp, No Air, 30 sec): 3B | Pencil hardness (pencil hardness; 1% DIDMA, Dental Lamp, No Air, 60 sec): 2B | Pencil hardness (pencil hardness; 1% DIDMA, Fusion (Q bulb), Air, 10 ft/min): 2B | Pencil hardness (pencil hardness; 1% DIDMA, Fusion (Q bulb), Air, 20 ft/min): > 4B | Pencil hardness (pencil hardness; 1% NPG, Dental Lamp, Air, 60 sec): 2B | Pencil hardness (pencil hardness; 1% NPG, Dental Lamp, No Air, 10 sec): < 4B | Pencil hardness (pencil hardness; 1% NPG, Dental Lamp, No Air, 30 sec): 2H | Pencil hardness (pencil hardness; 1% NPG, Dental Lamp, No Air, 60 sec): 3H | Pencil hardness (pencil hardness; 1% NPG, Fusion (Q bulb), Air, 10 ft/min): > 6H | Pencil hardness (pencil hardness; 1% NPG, Fusion (Q bulb), Air, 20 ft/min): 3H | Pencil hardness (pencil hardness; 1% NPG, Overhead Proj., Air, 60 sec): 3B | Pencil hardness (pencil hardness; 1% NPG, Overhead Proj., No Air, 60 sec): 3H | depth of cure (depth of cure; 0.01 and 0.03 weight %, 2 passes, 300 watt per inch medium pressure mercury arc lamp, 50 feet/minute, 2% DIDMA): greater than 3 mm | depth of cure (depth of cure; 0.1 weight %, 300 watt per inch medium pressure mercury arc lamp, 50 feet/minute, 2% DIDMA): greater than 1.5 mm | depth of cure (depth of cure; 10 seconds, 75 watt tungsten halogen, about 260 mw/cm^2, 0.05 weight % dye, 2 weight % DIDMA, 60% urethane diacrylate, 30% DPHPA, 10% BDDA): greater than 1 cm | depth of cure (depth of cure; 10 seconds, 75 watt tungsten halogen, 0.01, 0.05 or 0.1 weight %, 2% DIDMA, TMPTA/DPHPA/Epoxy acrylate): greater than 1 cm | depth of cure (depth of cure; 30 seconds, 350 watt tungsten halogen, about 500 mw/cm^2, dye 0.01, 0.05 and 0.1 weight, NPG 20 to 1): 3 cm | cure time for the same depth (3 cm) (depth of cure; about 2 watts/cm^2, NPG 20 to 1): 5 s | λmax in EtOH (first value) [1]: 470 | ε (first value) [1]: 21,100 | C=C% Conversion ([2]; 0.05 wt %): 40%

O=C(O)CCCc1cc2cc3ccc(O)cc3oc-2cc1=O [Compound 37a, 3-hydroxy-7-butyric acid-6-fluorone]
λmax in EtOH (first value) [1]: 512

5,7-diiodo-3-methoxy-6-fluorone [DIMF]
λmax in EtOH (first value) [1]: 470 | ε (first value) [1]: 23,500

C=CC(=O)OCCCCCCOc1ccc2cc3cc(I)c(=O)c(I)c-3oc2c1 [O O/O(CH2)6 OCOCH=CH2 H I H I H]
λmax in EtOH (first value) [1]: 472

CCCCCCCCc1cc2c(C#N)c3cc(I)c(=O)c(I)c-3oc2c(I)c1O [Compound 20, 9-cyano-3-hydroxy-4,5,7-triiodo-2-octyl-6-fluorone]
λmax in EtOH (first value) [1]: 630 | ε (first value) [1]: 40,000 | absorption wavelength [1]: 630 nm | λmax ([1]; in EtOH): 630 nm

N#Cc1c2ccc(=O)cc-2oc2cc(O)ccc12 [O O/O^- CN H H H H, 9-Cyano-3-hydroxy-6-fluorone]
λmax in EtOH [1]: 548 | λmax in EtOH (first value) [1]: 594 | ε (first value) [1]: 50300 | ε [1]: 24700 M⁻¹ cm⁻¹

CCCCCCCCc1cc2cc3cc(I)c(=O)c(I)c-3oc2c(I)c1O [O O/O^- H I H I (CH2)7 CH3, 3-hydroxy-4,5,7-triiodo-2-octyl-6-fluorone]
λmax in EtOH (first value) [1]: 534 | ε (first value) [1]: 92,600

Cc1ccc(-n2c3cc(=N)ccc-3cc3ccc(N)cc32)cc1 [N.phi.CH3 NH2 /NH2 + H H H H H]
λmax in EtOH (first value) [1]: 472

N#Cc1c2ccc(=O)cc-2sc2cc(O)ccc12 [S O/O^- CN H H H H]
λmax in EtOH (first value) [1]: 610

O=c1ccc2cc3ccc(O)cc3sc-2c1 [Compound 29, 3-hydroxy-6-thiafluorone]
λmax in EtOH (first value) [1]: 524

CCOC(=O)CCCc1cc2cc3ccc(=O)cc-3oc2cc1O [O O/O^- H H H H (CH2)3 COOEt]
λmax in EtOH (first value) [1]: 510

CC(C)(C)c1cc2cc3cc(C(C)(C)C)c(=O)cc-3oc2cc1O [Compound 30, 2,7-di-t-butyl-3-hydroxy-6-fluorone]
λmax in EtOH (first value) [1]: 518 | ε (first value) [1]: 101000

CC(C)(C)c1cc2cc3cc(C(C)(C)C)c(=O)c(I)c-3oc2c(I)c1O [Compound 26, 2,7-di-t-butyl-4,5-diiodo-3-hydroxy-6-fluorone]
λmax in EtOH (first value) [1]: 532 | ε (first value) [1]: 90800

N#Cc1c2cc(Br)c(=O)c(Br)c-2oc2c(Br)c(O)c(Br)cc12 [Compound 14, 9-cyano-3-hydroxy-2,4,5,7-tetrabromo-6-fluorone]
λmax in EtOH [1]: 576 | λmax in EtOH (first value) [1]: 626 | ε (first value) [1]: 51400 | ε [1]: 24500 M⁻¹ cm⁻¹

CC(C)(C)c1cc2c(C#N)c3cc(C(C)(C)C)c(=O)c(I)c-3oc2c(I)c1O [Compound 27, 9-cyano-2,7-di-t-butyl-4,5-diiodo-3-hydroxy-6-fluorone]
λmax in EtOH [1]: 582 | λmax in EtOH (first value) [1]: 636 | ε (first value) [1]: 68300 | ε [1]: 33600 M⁻¹ cm⁻¹

N#Cc1c2ccc(=O)cc-2oc2cc(O)c(CCCC(=O)O)cc12 [Compound 37b, 9-cyano-3-hydroxy-7-butyric acid-6-fluorone]
λmax in EtOH (first value) [1]: 596 | ε (first value) [1]: 74,000

CCCCOc1ccc2c(C#N)c3cc(I)c(=O)c(I)c-3oc2c1 [Compound 7, 9-cyano-5,7-diiodo-3-butoxy-6-fluoorone]
λmax in EtOH (first value) [1]: 600

CC(C)(C)c1cc2c(C#N)c3cc(C(C)(C)C)c(=O)cc-3oc2cc1O [Compound 31, 9-cyano-2,7-di-t-butyl-3-hydroxy-6-fluorone]
λmax in EtOH [1]: 564 | λmax in EtOH (first value) [1]: 614 | ε (first value) [1]: 47400 | ε [1]: 23200 M⁻¹ cm⁻¹
